This note sets out measurements from US4374249A, “[4R]-3-(ω-Aroylpropionyl)-4-thiazolidinecarboxylic acids and esters” (American Cyanamid Company, priority 1980, dated 1983).

The target in the assay is T1, angiotensin converting enzyme (ACE) (Oryctolagus cuniculus, UniProt P12822).
T1 construct: The ACE was extracted from rabbit lung acetane powder; tissue Pel-Freez, Biol. Inc; host or cells: rabbit lung acetone powder, 40,000 g supernatant used as crude extract
T1 sequence (P12822 34-1310): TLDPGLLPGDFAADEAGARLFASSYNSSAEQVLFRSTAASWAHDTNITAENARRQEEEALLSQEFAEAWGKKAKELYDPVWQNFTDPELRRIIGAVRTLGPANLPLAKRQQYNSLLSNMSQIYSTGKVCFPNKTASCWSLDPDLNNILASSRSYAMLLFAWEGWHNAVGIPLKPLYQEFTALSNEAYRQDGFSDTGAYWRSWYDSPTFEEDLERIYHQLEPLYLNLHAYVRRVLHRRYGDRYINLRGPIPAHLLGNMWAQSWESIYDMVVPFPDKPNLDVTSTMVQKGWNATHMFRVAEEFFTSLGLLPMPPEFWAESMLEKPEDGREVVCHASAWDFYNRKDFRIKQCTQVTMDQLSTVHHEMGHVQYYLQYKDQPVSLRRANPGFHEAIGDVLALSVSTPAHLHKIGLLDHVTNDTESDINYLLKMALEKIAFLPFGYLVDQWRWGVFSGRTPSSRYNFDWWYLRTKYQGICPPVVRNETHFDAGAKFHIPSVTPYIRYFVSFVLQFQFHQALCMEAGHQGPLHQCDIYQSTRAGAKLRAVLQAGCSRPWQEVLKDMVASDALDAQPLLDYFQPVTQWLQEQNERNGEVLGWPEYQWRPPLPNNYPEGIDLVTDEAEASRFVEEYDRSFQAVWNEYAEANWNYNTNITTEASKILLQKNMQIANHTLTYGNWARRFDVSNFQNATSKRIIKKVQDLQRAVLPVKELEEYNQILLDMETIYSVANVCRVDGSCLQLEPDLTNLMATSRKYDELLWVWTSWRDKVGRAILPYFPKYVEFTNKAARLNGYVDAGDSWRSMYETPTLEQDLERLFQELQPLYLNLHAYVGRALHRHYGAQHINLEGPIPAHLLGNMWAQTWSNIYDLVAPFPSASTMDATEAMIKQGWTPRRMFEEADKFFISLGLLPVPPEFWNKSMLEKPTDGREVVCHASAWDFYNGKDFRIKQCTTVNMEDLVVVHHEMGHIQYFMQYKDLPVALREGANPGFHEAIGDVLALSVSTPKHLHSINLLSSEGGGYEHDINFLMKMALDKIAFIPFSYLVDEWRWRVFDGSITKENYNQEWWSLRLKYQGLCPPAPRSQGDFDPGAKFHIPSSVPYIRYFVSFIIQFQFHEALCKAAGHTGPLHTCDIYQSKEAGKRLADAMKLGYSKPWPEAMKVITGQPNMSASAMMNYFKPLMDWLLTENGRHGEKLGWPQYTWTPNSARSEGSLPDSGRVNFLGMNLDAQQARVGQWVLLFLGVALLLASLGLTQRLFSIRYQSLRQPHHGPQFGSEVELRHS
As to the kind of experiment: Spectrophotometric Assay for Angiotensin Converting Enzyme Inhibitors (in vitro inhibition of ACE, benzoyl-glycyl-histidyl-leucine substrate). The assay is classed as biochemical. The following applies: crude ACE extract from rabbit lung; 30 minutes at 37° C.; hippuric acid absorbance at 228 nm. The procedure: Spectrophotometric Assay for Angiotensin Converting Enzyme Inhibitors
The in vitro activity for inhibition of the angiotensin converting enzyme (ACE) was measured by the method of Cushman, D. W. and Cheung, H. S., Biochem. Pharmacol., 20, 1637-1648 (1971), using benzoyl-glycyl-histidyl-leucine as the substrate. The reaction mixture consisted of 50 μl. of potassium phosphate (500 mM., […]), 30 μl. of sodium chloride (2500 mM.), 25 μl. of substrate (50 mM.), 30 to 50 μl. of the crude extract of ACE, 10 μl. of test compound (2.5 mM.) or vehicle and a suitable amount of distilled water to give a total volume of 250 μl. This reaction mixture was incubated for 30 minutes at 37° C. and the reaction was then terminated by the addition of 250 μl. of 1 N hydrochloric acid. The hippuric acid was then extracted with 1.5 ml. of ethyl acetate by vortex mixing for 15 seconds. After centrifugation, one ml. of the ethyl acetate layer was pipetted into a new tube and evaporated to dryness. The extracted hippuric acid was then dissolved in one ml. of water and the amount of this acid was then measured by its absorbance at 228 nm. The ACE was extracted from rabbit lung acetane powder (Pel-Freez, Biol. Inc.) by blending 5 g. of the powder in 50 ml. of phosphate buffer (50 mM., pH 8.3) and then centrifuging at 40,000 g for 40 minutes. The supernatant was then kept at 5° C. and used as the enzyme source. The activity of the ACE inhibitor was calculated as the percent inhibition of ACE activity compared to the control value of that particular assay. A full dose-response inhibitory curve is then performed to determine the IC50 value which may be defined as the molar concentration of a compound that will inhibit ACE activity by 50%.

SMILES strings stand for the structures.

As for `CC(=O)SC(CC(=O)N1CSC[C@H]1C(=O)OCc1c(C)cc(C)cc1C)C(=O)c1ccc(F)cc1` (stereo partly drawn) [[4R]-3-[3-Acetylthio-3-(4-fluorobenzoyl)propionyl]-4-thiazolidinecarboxylicacid, 2,4,6-trimethylbenzyl ester], the IC50 (in general, the midpoint of a concentration-inhibition curve) stood at 16.8 µM. The result for `CC(=O)SC(C(=O)c1ccccc1)[C@@H](C)C(=O)N1CSC[C@H]1C(=O)O` (stereo partly drawn) [[4R-(4R*,2'S*)]-3-(3-Acetylthio-3-benzoyl-2-methylpropionyl)-4-thiazolidinecarboxylic acid] reads 0.067 µM. Under `CC(=O)SC(CC(=O)c1ccccc1)C(=O)N1CSC[C@H]1C(=O)O` (stereo partly drawn) [[4R]-3-(2-Acetylthio-3-benzoylpropionyl)-4-thiazolidinecarboxylic acid] stands 8.4 µM.
